pEC50: −log10 of the molar value. Values after ≈ are worked out from the molar mass of the structure shown. Read-outs that look alike come from different tables or passages of the source.
Experiments:
[1] = biological target: E. coli PBP3 (Escherichia coli (strain K12), UniProt P0AD68); assay: E. coli PBP3 Bocillin-FL fluorescence polarization competition binding assay
Method in brief: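 FP competition: 1.5 μM PBP, 0.1 μM Bocillin-FL, cpd 0–1000 μM; 50 mM Hepes pH 8.0/300 mM NaCl/5% glycerol. Read 490/520 nm immediately after Bocillin-FL addition, 60 min. EC50 = cpd conc. lowering probe binding.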

[2] = biological target: E. coli PBP2 (Escherichia coli (strain K12), UniProt P0AD65); assay: E. coli PBP2 Bocillin-FL fluorescence polarization competition binding assay
Method in brief: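 Fluorescence polarization competition with Bocillin-FL (0.1 μM final) and purified PBP2 (1.5 μM final) in 50 mM Hepes pH 8.0, 300 mM NaCl, 5% glycerol. FP (ex 490/em 520 nm) read for 90 min after Bocillin-FL addition; EC50 is the inhibitor concentration reducing Bocillin-FL binding by half.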

[3] = biological target: E. coli PBP4 (Escherichia coli (strain K12), UniProt P24228); assay: E. coli PBP4 Bocillin-FL fluorescence polarization competition binding assay
Excerpt: To determine the ability of boronic acid-based test PBP inhibitors to bind Penicillin Binding Proteins (PBPs), Bocillin-FL (fluorescently-labeled penicillin V; ThermoFisher Scientific) was used in a fluorescence polarization (FP) competition binding assay to assess inhibitor binding to PBP2, PBP3 or PBP4 from Escherichia coli. PBPs were cloned and purified as described previously (King, D. T, et al., ACS Infectious Diseases 2015, 1, 175-184). To establish assay conditions for competition binding, an enzyme titration/saturation binding experiment was initially performed. Bocillin-FL was prepared at 0.2 μM in a buffer comprised of 50 mM Hepes (pH 8.0), 300 mM NaCl and 5% (v/v) glycerol. Saturation binding was performed by mixing 40 μl of PBP solutions ranging in concentrations from 0-12 μM with 40 μl of the 0.2 μM Bocillin-FL solution, in individual wells of a black 384-well microplate. FP was measured immediately upon mixing (Excitation, 490 nm; Emission, 520 nm; g-factor, 0.96), using a Cytation3 (BioTek) microplate reader and measured continuously for up to 120 minutes. […] Assays (80 μl final volume) were performed with PBPs at a final concentration of 1.5 μM, Bocillin-FL at 0.1 μM and beta-lactam concentrations that ranged from 0-1000 μM. […] Bocillin-FL was added and the FP immediately measured for 60 minutes (90 minutes for PBP2). The beta-lactam potency was reported as the concentration of beta-lactam required to reduce binding of Bocillin-FL by […] (EC50). […] Binding assays for boronic acid PBP inhibitors were performed in an identical fashion.

[4] = biological target: E. coli PBP1a (Escherichia coli (strain K12), UniProt P02918); assay: Radioligand competition binding assay with 14C-labeled boronic acid probe, PBP1a
Method in brief: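 Purified E. coli PBP1a (0.1 μM) preincubated 60 min with test boronic acid inhibitor in 20 mM Tris pH 7.5, 500 mM NaCl, 0.1% Triton X-100, then 60 min with 20 μM ^14C-labeled boronic acid probe. Bound probe recovered by spin desalting and counted by scintillation; EC50 reported.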

[5] = tested on: engineered strain of Escherichia coli harboring CTX-M15; assay: microbe, parasite or virus in culture; type: cell-based; conditions: Escherichia coli, read-out: Microbiological Activity (MIC in mg/L), E. coli DH5α/pLBII-CTX-M15, engineered strain producing CTX-M15
[6] = tested on: E. coli DH5α empty pLBII vector control strain; assay: microbe, parasite or virus in culture; type: cell-based, Escherichia coli; conditions: Escherichia coli, read-out: Microbiological Activity (MIC in mg/L), E. coli DH5α/pLBII
Method in brief: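 Broth microdilution in cation-supplemented Mueller-Hinton broth used a starting inoculum of 5×10^5 CFU/mL of E. coli DH5α carrying empty pLBII vector. Plates were incubated 16–20 h at 37 °C. MIC was read visually as the lowest concentration showing no growth.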

[7] = tested on: E. coli ATCC 25922; assay: Broth microdilution MIC, E. coli ATCC 25922; type: cell-based; conditions: Escherichia coli, ATCC25922; E. coli ATCC 25922, broth microdilution; read-out: MIC E. coli 25922
Method in brief: (§1)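 Colonies from Mueller Hinton II agar were grown 3-5 hours at 37° C in cation-supplemented broth, adjusted by OD600, then added to 2-fold compound dilutions at 5×10^5 CFU/mL. After 16-20 hours at 37° C, MICs were scored visually.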

[8] = tested on: E. coli AG100; assay: Broth microdilution MIC, E. coli AG100 (wild-type parent); type: cell-based; conditions: Escherichia coli; wild-type parent E. coli AG100, broth microdilution; read-out: MIC E. coli AG100
Method in brief: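 Broth microdilution in cation-supplemented Mueller-Hinton broth, 2-fold serial compound dilutions, inoculum 5×10^5 CFU/mL from 3-5 h log culture.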

[9] = tested on: E. coli 901C; assay: microbe, parasite or virus in culture; type: cell-based; conditions: Escherichia coli; hyper-permeable E. coli 901C, broth microdilution; read-out: MIC E. coli 901C
Method in brief: as §1

[10] = tested on: E. coli AG100A; assay: microbe, parasite or virus in culture; type: cell-based; conditions: Escherichia coli, read-out: MIC E. coli AG100A
Method in brief: as §1

[11] = tested on: K. pneumoniae UMM; assay: microbe, parasite or virus in culture; type: cell-based; conditions: Klebsiella pneumoniae; K. pneumoniae UMM producing SHV-5 and KPC-2; read-out: MIC K. pneumoniae UMM
Method in brief: as §1

## CCN1CCN(C(=O)NC(C(=O)N[C@H]2Cc3cc(C)cc(C(=O)O)c3OB2O)c2csc(N)n2)C(=O)C1=O (stereo partly drawn) [Example 20, (3R)-3-(2-(2-aminothiazol-4-yl)-2-(4-ethyl-2,3-dioxopiperazine-1-carboxamido)acetamido)-2-hydroxy-6-methyl-3,4-dihydro-2H-benzo[e][1,2]oxaborinine-8-carboxylic acid]
[1]
  pEC50: 3.30 to 4.52
[2]; fluorescence polarization competition binding with Bocillin-FL, read-out: E. coli K12 PBP2 Potency (EC50)
  pEC50: < 3.30
[3]; fluorescence polarization competition binding with Bocillin-FL, read-out: E. coli K12 PBP4 Potency (EC50)
  pEC50: < 3.30
[4]
  pEC50: > 5.00
[5]
  MIC: 32 to 64 mg/L (≈ 58.8 to 118 µM)
[6]
  MIC: 32 to 64 mg/L (≈ 58.8 to 118 µM)

## CCN1CCN(C(=O)N[C@H](Cc2ccc(O)c(O)c2)C(=O)N[C@H]2Cc3cccc(C(=O)O)c3OB2O)C(=O)C1=O [Example 40, (R)-3-((R)-3-(3,4-dihydroxyphenyl)-2-(4-ethyl-2,3-dioxopiperazine-1-carboxamido)propanamido)-2-hydroxy-3,4-dihydro-2H-benzo[e][1,2]oxaborinine-8-carboxylic acid]
[1]
  pEC50: 3.30 to 4.52
[3]
  pEC50: 3.30 to 4.52

## CCN1CCN(C(=O)NC(C(=O)N[C@H]2Cc3cccc(C(=O)O)c3OB2O)c2ccc(O)cn2)C(=O)C1=O (stereo partly drawn) [Example 89, (3R)-3-(2-(4-ethyl-2,3-dioxopiperazine-1-carboxamido)-2-(5-hydroxypyridin-2-yl)acetamido)-2-hydroxy-3,4-dihydro-2H-benzo[e][1,2]oxaborinine-8-carboxylic acid]
[1]; fluorescence polarization competition binding with Bocillin-FL, read-out: E. coli K12 PBP3 Potency
  pEC50: > 4.52
[2]
  pEC50: 3.30 to 4.52
[3]
  pEC50: 3.30 to 4.52
[7]
  MIC: 8 to 16 µg/mL
[8]
  MIC: 32 to 64 µg/mL
[9]
  MIC: 0.5 to 1 µg/mL
[10]
  MIC: 2 to 4 µg/mL
[11]
  MIC: 8 to 16 µg/mL
[5]
  MIC: 8 to 16 mg/L (≈ 15.2 to 30.5 µM)

## C[C@@H](O)[C@H]1C(=O)N2C(C(=O)O)=C(S[C@@H]3CN[C@H](C(=O)N(C)C)C3)[C@H](C)[C@H]12 [meropenem, reference compound]
[3]; assay validation with beta-lactams, PBP 1.5 μM, Bocillin-FL 0.1 μM, read-out: EC50 with PBP4 (reduction of Bocillin-FL binding)
  pEC50: > 5.70
